Data reported in publication PMC5336470, “Insights into the mechanism of membrane pyrophosphatases by combining experiment and computer simulation” (Structural Dynamics, 2017).

Molecular target: T1, VrPPase (Vigna radiata, UniProt P21616)
T1 construct: VrPPase reconstituted into liposomes (proteoliposomes); homodimer
T1 sequence (P21616 2-766): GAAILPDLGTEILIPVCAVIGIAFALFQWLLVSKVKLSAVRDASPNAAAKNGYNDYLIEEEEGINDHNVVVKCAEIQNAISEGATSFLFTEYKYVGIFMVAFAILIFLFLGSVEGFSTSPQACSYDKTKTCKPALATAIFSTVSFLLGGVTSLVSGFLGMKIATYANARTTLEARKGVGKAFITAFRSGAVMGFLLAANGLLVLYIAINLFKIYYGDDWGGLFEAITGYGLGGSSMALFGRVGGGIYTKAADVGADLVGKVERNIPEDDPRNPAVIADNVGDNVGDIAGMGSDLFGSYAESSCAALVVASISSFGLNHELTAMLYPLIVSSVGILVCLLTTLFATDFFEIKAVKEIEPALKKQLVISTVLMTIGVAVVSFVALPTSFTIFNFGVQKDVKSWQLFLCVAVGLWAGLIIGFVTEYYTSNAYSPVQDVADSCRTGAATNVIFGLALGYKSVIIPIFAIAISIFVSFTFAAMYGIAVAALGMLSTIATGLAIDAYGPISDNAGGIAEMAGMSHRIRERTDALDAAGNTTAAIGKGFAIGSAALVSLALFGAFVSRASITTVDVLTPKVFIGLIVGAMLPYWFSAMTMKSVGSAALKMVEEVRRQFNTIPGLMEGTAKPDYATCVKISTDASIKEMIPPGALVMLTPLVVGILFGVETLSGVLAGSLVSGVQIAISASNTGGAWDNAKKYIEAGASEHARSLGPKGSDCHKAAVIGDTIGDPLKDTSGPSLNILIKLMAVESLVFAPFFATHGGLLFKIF
Assay: SURFE2R N1 electrometric proton-pumping current, proteoliposomes
Assay type: biochemical
Details: 200 uM K2HPO4 as control, 10 uM CCCP as protonophore control

In the case of `O=P(O)(O)NP(=O)(O)O` [imidodiphosphate], the “SURFE2R N1 electrometric proton-pumping current, proteoliposomes” value (50 uM IDP, non-hydrolysable substrate analogue) was “IDP-bound VrPPase specifically pumps protons”.

For `O=P(O)(O)OP(=O)(O)O` [pyrophosphate], the “SURFE2R N1 electrometric proton-pumping current, proteoliposomes” value (50 uM K4PPi) was “Addition of CCCP to membrane-embedded VrPPase in the presence of PPi reduces the ion-pumping current”.

In the case of `O=P(O)(O)CP(=O)(O)O` [methylene diphosphonate], the “SURFE2R N1 electrometric proton-pumping current, proteoliposomes” value (50 uM MEDP, non-hydrolysable substrate analogue) was “VrPPase in the presence of another substrate analogue, methylene diphosphonate (MEDP), similarly produces a change”.
